The text below walks through data of patent US20100249043A1, “COMPOSITIONS AND METHODS FOR PROMOTING HAIR GROWTH” (LA CANADA VENTRURES, INC., priority 2009, published 2010).

The assay concerns scalp hair. Briefly: scalp hair conditioner / scalp serum applied to dry scalp, monthly follow up with photographs. Format: in vivo. The conditions noted are these: applied to dry scalp after cleansing.

Description: The subjects were asked to apply the scalp serum with various concentrations of prostaglandin (dechloroethylcloprostenolamide from 0 wt % to 0.03 wt %), and a placebo is applied on the separate portion of the scalp. […] All the agents are applied directly to dry scalp after cleansing. Follow up are done monthly and photographs are taken.

Consider “dechloroethylcloprostenolamide [prostaglandin]”, for which the “time to response on scalp” value was 3 month.
